Our source for the IC50 and IC90 values is ChEMBL document CHEMBL1141951, “Anti-malarial activity of Baylis-Hillman adducts from substituted 2-chloronicotinaldehydes” (Bioorg Med Chem Lett, 2005).

Values after ≈ are worked out from the molar mass of the structure shown.

One experiment deals with Plasmodium falciparum. Briefly: Antimalarial activity as growth inhibition after 48 hrs against chloroquine-sensitive Plasmodium falciparum FDL-B. The class given is functional, organism-based.
One may read the IC50 as the concentration at which inhibition is half-maximal. In turn, `C=C(C#N)C(O)c1cc(C)cnc1Cl` (centres undefined) returned an IC50 of 1.3 µg/mL (≈ 6.23 µM).
In turn, `C=C(C(=O)OC)C(O)c1cc(-c2ccccc2)cnc1Cl` (centres undefined) displayed an IC50 of 115 µg/mL (≈ 379 µM). Compared with the last compound, the IC50 is about 88-fold higher.
Same read-out and setting: to `C=C(C#N)C(O)c1ccc(C(=O)OC)nc1Cl` (centres undefined) belongs 7 µg/mL (≈ 27.7 µM).
The same measure, in the same setting: to `C=C(C(=O)OC)C(O)c1cc(C)cnc1Cl` (centres undefined) belongs 28.5 µg/mL (≈ 118 µM); to `C=C(C#N)C(O)c1cc(CC)cnc1Cl` (centres undefined), 4 µg/mL (≈ 18 µM).
Same read-out and setting: the result for `C=C(C#N)C(O)c1cc(-c2ccccc2)cnc1Cl` (centres undefined) reads 8 µg/mL (≈ 29.6 µM).
The term IC90 denotes the point of the concentration-response curve where the effect stands at 90%. On to `CCN(CC)CCCC(C)Nc1ccnc2cc(Cl)ccc12` (centres undefined) [CHLOROQUINE], for which the 90% effect level (IC90) was put at 0.02 µg/mL (≈ 0.0625 µM).

Another experiment deals with Plasmodium falciparum. As to the kind of experiment: Antimalarial activity as reduced schizont maturation against chloroquine-sensitive Plasmodium falciparum FDL-B after 24 hrs. It counts as functional, organism-based.
Compound `C=C(C#N)C(O)c1cc(C)cnc1Cl` (centres undefined) yielded an IC50 of 1.25 µg/mL (≈ 5.99 µM).
Compound `C=C(C(=O)OC)C(O)c1cc(-c2ccccc2)cnc1Cl` (centres undefined) registered an IC50 of 45 µg/mL (≈ 148 µM).
On the same count and under the same terms, the result for `C=C(C#N)C(O)c1ccc(C(=O)OC)nc1Cl` (centres undefined) reads 3.4 µg/mL (≈ 13.5 µM).
In turn, `C=C(C(=O)OC)C(O)c1cc(C)cnc1Cl` (centres undefined) displayed an IC50 of 18 µg/mL (≈ 74.5 µM) and an IC90 of 32 µg/mL (≈ 132 µM).
`C=C(C#N)C(O)c1cc(CC)cnc1Cl` (centres undefined) showed an IC50 of 1.8 µg/mL (≈ 8.08 µM).
On the same count and under the same terms, the result for `C=C(C#N)C(O)c1cc(-c2ccccc2)cnc1Cl` (centres undefined) reads 3.6 µg/mL (≈ 13.3 µM).
Turning to `CCN(CC)CCCC(C)Nc1ccnc2cc(Cl)ccc12` (centres undefined) [CHLOROQUINE], the IC90 came out at 0.018 µg/mL (≈ 0.0563 µM).

The test system of another experiment is Plasmodium falciparum. Briefly: Antimalarial activity as reduced schizont maturation after 24 hrs against chloroquine-resistant Plasmodium falciparum FDL-NG. The class given is functional, organism-based.
Consider `C=C(C#N)C(O)c1cc(C)cnc1Cl` (centres undefined), for which the midpoint of inhibition, the IC50, lay at 22.5 µg/mL (≈ 108 µM).
`C=C(C(=O)OC)C(O)c1cc(-c2ccccc2)cnc1Cl` (centres undefined): it took 5 µg/mL (≈ 16.5 µM) to reach half-maximal inhibition (IC50).
Same read-out and setting: the result for `C=C(C#N)C(O)c1ccc(C(=O)OC)nc1Cl` (centres undefined) reads 5.75 µg/mL (≈ 22.8 µM).
In turn, `C=C(C(=O)OC)C(O)c1cc(C)cnc1Cl` (centres undefined) came in with an IC50 of 3.05 µg/mL (≈ 12.6 µM) and an IC90 of 7 µg/mL (≈ 29 µM).
On to `C=C(C#N)C(O)c1cc(CC)cnc1Cl` (centres undefined), for which the IC50 was determined as 2.5 µg/mL (≈ 11.2 µM).
As to `C=C(C#N)C(O)c1cc(-c2ccccc2)cnc1Cl` (centres undefined), the IC50 turned out to be 0.9 µg/mL (≈ 3.32 µM).

The next experiment concerns Plasmodium falciparum. As to the kind of experiment: Antimalarial activity as growth inhibition after 48 hrs against chloroquine-resistant Plasmodium falciparum FDL-NG. It counts as functional, organism-based.
On to `C=C(C#N)C(O)c1cc(C)cnc1Cl` (centres undefined), for which the midpoint of inhibition, the IC50, lay at 10.5 µg/mL (≈ 50.3 µM).
As to `C=C(C(=O)OC)C(O)c1cc(-c2ccccc2)cnc1Cl` (centres undefined), the midpoint of inhibition, the IC50, lay at 10.8 µg/mL (≈ 35.4 µM).
Compound `C=C(C#N)C(O)c1ccc(C(=O)OC)nc1Cl` (centres undefined) yielded an IC50 of 6.75 µg/mL (≈ 26.7 µM).
With `C=C(C(=O)OC)C(O)c1cc(C)cnc1Cl` (centres undefined), the half-maximal inhibitory concentration (IC50) was found to be 5.75 µg/mL (≈ 23.8 µM) and it took 27.5 µg/mL (≈ 114 µM) to reach the 90% level (IC90).
The compound `C=C(C#N)C(O)c1cc(CC)cnc1Cl` (centres undefined) displayed an IC50 of 5.5 µg/mL (≈ 24.7 µM).
Still for that read-out and setting: to `C=C(C#N)C(O)c1cc(-c2ccccc2)cnc1Cl` (centres undefined) belongs 2.2 µg/mL (≈ 8.13 µM).
